In PubChem BioAssay AID248 (DTP/NCI, 2004):
Several values for one entry are separate records, joined by “and”; a condition that tells them apart may be missing. Equal values may be shown once. Toxic doses and inconclusive results are not listed. Rule as the data show it: active = T/C of 150% or more; inactive = T/C below 125%.

System: L1210 leukemia ip in BDF1 mice, survival T/C
Test: NCI In Vivo Anticancer Drug Screen. Data for tumor model L1210 Leukemia (intraperitoneal) in B6D2F1 (BDF1) mice
Conditions: endpoint: mean survival time, higher = longer survival
Procedure, shortened: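 Tumor was transplanted into mice, which were then dosed with test compound or vehicle alone. Survival was recorded for each group, and the treated figure was expressed relative to the control figure.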

[1] = dose: 100.0 mg/kg/injection, schedule: Q01DX001 (ip), vehicle: Klucel (hydroxypropylcellulose) (HPC)
[2] = dose: 100.0 mg/kg/injection, schedule: Q04DX003 (ip), vehicle: Klucel (hydroxypropylcellulose) (HPC)
[3] = dose: 200.0 mg/kg/injection, schedule: Q01DX001 (ip), vehicle: Klucel (hydroxypropylcellulose) (HPC)
[4] = dose: 200.0 mg/kg/injection, schedule: Q04DX003 (ip), vehicle: Klucel (hydroxypropylcellulose) (HPC)
[5] = dose: 400.0 mg/kg/injection, schedule: Q01DX001 (ip), vehicle: Klucel (hydroxypropylcellulose) (HPC)
[6] = dose: 400.0 mg/kg/injection, schedule: Q04DX003 (ip), vehicle: Klucel (hydroxypropylcellulose) (HPC)
[7] = dose: 400.0 mg/kg/injection, schedule: Q04DX002 (ip), vehicle: saline with Tween-80
[8] = dose: 100.0 mg/kg/injection, schedule: Q01DX001 (ip), vehicle: saline
[9] = dose: 200.0 mg/kg/injection, schedule: Q01DX001 (ip), vehicle: saline
[10] = dose: 400.0 mg/kg/injection, schedule: Q01DX001 (ip), vehicle: saline
[11] = dose: 100.0 mg/kg/injection, schedule: Q01DX009 (ip), vehicle: Klucel (hydroxypropylcellulose) (HPC)
[12] = dose: 200.0 mg/kg/injection, schedule: Q01DX009 (ip), vehicle: Klucel (hydroxypropylcellulose) (HPC)
[13] = dose: 400.0 mg/kg/injection, schedule: Q01DX009 (ip), vehicle: Klucel (hydroxypropylcellulose) (HPC)
[14] = dose: 50.0 mg/kg/injection, schedule: Q01DX001 (ip), vehicle: carboxymethylcellulose (CMC)
[15] = dose: 100.0 mg/kg/injection, schedule: Q01DX001 (ip), vehicle: carboxymethylcellulose (CMC)
[16] = dose: 200.0 mg/kg/injection, schedule: Q01DX001 (ip), vehicle: carboxymethylcellulose (CMC)
[17] = dose: 400.0 mg/kg/injection, schedule: Q01DX001 (ip), vehicle: carboxymethylcellulose (CMC)
[18] = dose: 200.0 mg/kg/injection, schedule: Q04DX002 (ip), vehicle: saline with Tween-80

Measured: T/C

Cc1cc(C)c(Sc2ccc([N+](=O)[O-])c3ccccc23)c(C)c1
inactive: [1] 102 % of control | [2] 94 % of control | [3] 98 % of control | [4] 100 % of control | [5] 95 % of control | [6] 90 % of control

CCc1c(Nc2ccccc2Cl)nc(N)[nH]c1=O
inactive: dose: 100.0 mg/kg/injection, schedule: Q01DX Z (ip), vehicle: methylcellulose (MC) 95 % of control

c1ccc(Nc2ccc(C(c3ccccc3)(c3ccccc3)c3ccccc3)cc2)cc1
inactive: dose: 25.6 mg/kg/injection, schedule: Q04DX002 (ip), vehicle: saline with Tween-80 97 % of control | dose: 64.0 mg/kg/injection, schedule: Q04DX002 (ip), vehicle: saline with Tween-80 94 % of control | dose: 160.0 mg/kg/injection, schedule: Q04DX002 (ip), vehicle: saline with Tween-80 97 % of control | [7] 91 % of control

CCOC(=N)c1ccc(C(=O)OCCOC)cc1
inactive: [8] 97 % of control | [9] 97 % of control | [10] 97 % of control

Cc1nc(Cl)c2c(n1)Oc1nc(C)nc(Cl)c1C2c1ccc(Cl)cc1
inactive: dose: 50.0 mg/kg/injection, schedule: Q04DX003 (ip), vehicle: Klucel (hydroxypropylcellulose) (HPC) 97 % of control | [11] 96 % of control | [2] 97 % of control | [12] 97 % of control | [4] 101 % of control | [13] 107 % of control | [6] 95 % of control

CCCCNC(c1ccccc1)=[N+]1CCCCC1
inactive: dose: 12.5 mg/kg/injection, schedule: Q04DX002 (ip), vehicle: saline 92 % of control | dose: 25.0 mg/kg/injection, schedule: Q04DX002 (ip), vehicle: saline 98 % of control

CCCCCCCCCCCCCCCCCCNC(=S)SCCCC
inactive: dose: 400.0 mg/kg/injection, schedule: Q04DX002 (ip), vehicle: saline + alcohol 100 % of control

S=C(Sc1ccc(Cl)cc1)Sc1ccc(Cl)cc1
inactive: [8] 93 % of control | [9] 93 % of control | [10] 90 % of control

CC1(C)CC(N)CC(C)(C)N1
inactive: [14] 107 % of control | [15] 103 % of control

O=C(/C=C/c1ccccc1)NC(=S)Nc1nccs1
inactive: dose: 100.0 mg/kg/injection, schedule: Q01DX009 (ip), vehicle: carboxymethylcellulose (CMC) 100 % of control and 104 % of control | dose: 100.0 mg/kg/injection, schedule: Q04DX002 (ip), vehicle: carboxymethylcellulose (CMC) 97 % of control and 103 % of control | dose: 100.0 mg/kg/injection, schedule: Q04DX003 (ip), vehicle: carboxymethylcellulose (CMC) 100 % of control | dose: 200.0 mg/kg/injection, schedule: Q01DX009 (ip), vehicle: carboxymethylcellulose (CMC) 100 % of control and 111 % of control | dose: 200.0 mg/kg/injection, schedule: Q04DX002 (ip), vehicle: carboxymethylcellulose (CMC) 99 % of control and 103 % of control | dose: 200.0 mg/kg/injection, schedule: Q04DX003 (ip), vehicle: carboxymethylcellulose (CMC) 96 % of control | dose: 400.0 mg/kg/injection, schedule: Q01DX009 (ip), vehicle: carboxymethylcellulose (CMC) 96 % of control and 102 % of control | dose: 400.0 mg/kg/injection, schedule: Q04DX002 (ip), vehicle: carboxymethylcellulose (CMC) 103 % of control and 87 % of control | dose: 400.0 mg/kg/injection, schedule: Q04DX003 (ip), vehicle: carboxymethylcellulose (CMC) 93 % of control

CC1(C)NC(C(=O)O)CS1 (centres undefined)
inactive: [8] 101 % of control | [9] 90 % of control | [10] 95 % of control

Nc1ccc(Cn2ccc(=O)[nH]c2=O)cc1
inactive: dose: 100.0 mg/kg/injection, schedule: Q01DX001 (ip), vehicle: saline with Tween-80 102 % of control | dose: 200.0 mg/kg/injection, schedule: Q01DX001 (ip), vehicle: saline with Tween-80 94 % of control | dose: 400.0 mg/kg/injection, schedule: Q01DX001 (ip), vehicle: saline with Tween-80 87 % of control

Cc1ccc(S(=O)(=O)OCC2C3C=CC(C3)C2COS(=O)(=O)c2ccc(C)cc2)cc1 (centres undefined)
inactive: [11] 92 % of control | [2] 95 % of control | [12] 97 % of control | [4] 98 % of control | [13] 98 % of control | [6] 95 % of control

CC1Oc2ccccc2OC1CN1CCC2(CC1)C(=O)N(C)CN2c1ccccc1 (centres undefined)
inactive: [1] 88 % of control | [3] 99 % of control | [5] 86 % of control

Cc1ccc(NC(N)=O)cc1Cl
inactive: [11] 105 % of control | [12] 107 % of control | [13] 102 % of control

NNC(=O)CNc1ccccc1Br
inactive: dose: 50.0 mg/kg/injection, schedule: Q04DX002 (ip), vehicle: Klucel (hydroxypropylcellulose) (HPC) 106 % of control | dose: 100.0 mg/kg/injection, schedule: Q04DX002 (ip), vehicle: Klucel (hydroxypropylcellulose) (HPC) 105 % of control and 110 % of control

O=[N+]([O-])c1ccc(/C=N\NC(=S)Nc2ccc3cn[nH]c3c2)cc1
inactive: [14] 91 % of control | [15] 97 % of control | [16] 97 % of control | [17] 105 % of control

CCOC(=O)c1ccc(N2C(=O)C=CC2=O)cc1
inactive: dose: 100.0 mg/kg/injection, schedule: Q04DX003 (ip), vehicle: saline with Tween-80 96 % of control | dose: 200.0 mg/kg/injection, schedule: Q04DX003 (ip), vehicle: saline with Tween-80 98 % of control | dose: 400.0 mg/kg/injection, schedule: Q04DX003 (ip), vehicle: saline with Tween-80 89 % of control

CC1CC(C)(C)OC(C(C)C)O1 (centres undefined)
inactive: dose: 50.0 mg/kg/injection, schedule: Q01DX009 (ip), vehicle: acetone 100 % of control | dose: 75.0 mg/kg/injection, schedule: Q01DX001 (ip), vehicle: acetone 95 % of control | dose: 100.0 mg/kg/injection, schedule: Q01DX009 (ip), vehicle: acetone 97 % of control | dose: 150.0 mg/kg/injection, schedule: Q01DX001 (ip), vehicle: acetone 92 % of control | dose: 200.0 mg/kg/injection, schedule: Q01DX009 (ip), vehicle: acetone 94 % of control | dose: 300.0 mg/kg/injection, schedule: Q01DX001 (ip), vehicle: acetone 87 % of control

CSc1nc(/N=N/Nc2nc(SC)nn2C)n(C)n1
inactive: dose: 100.0 mg/kg/injection, schedule: Q04DX002 (ip), vehicle: saline with Tween-80 93 % of control | [18] 93 % of control | [7] 97 % of control

O=c1[nH]c(-c2ccccc2N=NN2CCCCC2)nc2ccccc12
inactive: dose: 25.0 mg/kg/injection, schedule: Q04DX002 (ip), vehicle: saline with Tween-80 100 % of control | dose: 50.0 mg/kg/injection, schedule: Q04DX002 (ip), vehicle: saline with Tween-80 103 % of control | [18] 103 % of control | [7] 88 % of control

CCCCCCCCCCC(=O)[O][Hg][c]1ccccc1
inactive: dose: 9.38 mg/kg/injection, schedule: Q01DX001 (ip), vehicle: saline 98 % of control | dose: 18.75 mg/kg/injection, schedule: Q01DX001 (ip), vehicle: saline 93 % of control

O=C1NC(=O)C(Cc2ccccc2)(Cc2ccccc2)C(=O)N1
inactive: [15] 103 % of control | [16] 95 % of control | [17] 95 % of control

CCOC(=O)C1(C(=O)OCC)C=C(CC)C(=O)OC1
inactive: [14] 111 % of control | [15] 100 % of control | [16] 113 % of control | [17] 105 % of control

O=C(OCC1OC(n2c(=O)[nH]c(=S)c3ncsc32)C(OC(=O)c2ccccc2)C1OC(=O)c1ccccc1)c1ccccc1 (centres undefined)
inactive: dose: 100.0 mg/kg/injection, schedule: Q01DX005 (ip), vehicle: saline 95 % of control | dose: 200.0 mg/kg/injection, schedule: Q01DX005 (ip), vehicle: saline 91 % of control
